Measured values reported in patent US6852863B2, “Metabolites of (3-{[4-tert-butyl-benzyl)-(pyridine-3-sulfonyl)-amino]-methyl}-phenoxy)-acetic acid” (Pfizer Inc., priority 2002, dated 2005).

Legend:
[1] = Metabolism of 14C-parent in rat liver microsomes; assay type: in vitro ADME; conditions: 20 μM 14C-parent, NADPH, 30 minutes, 37° C.; HPLC radiochromatogram peak
Experimental: (§1) Human (HL-mix 12), rat, monkey and dog liver microsomes were prepared by differential centrifugation using standard procedures. Prior to use, liver microsomes were thawed on ice and reconstituted using 100 mM potassium phosphate pH 7.4. [^14C]-(3-{[4-tert-butyl-benzyl)-(pyridine-3-sulfonyl)-amino]-methyl}-phenoxy)-acetic acid was dissolved 100 mM potassium phosphate pH 7.4 at a final substrate concentration of 20 μM. Samples were pre-incubated for 3 min with microsomes (CYP 450; 0.5 μM) at 37° C. in a shaking water bath. Incubations were initiated with the addition of 100 μl cofactor (1.1 mM NADPH, 10 mM MgCl2) per 1 ml of incubation mixture. Incubations were stopped after 30 minutes by the addition of an equal volume of cold acetonitrile.
(§2) Metabolite quantification was performed by measuring the areas of individually separated HPLC peaks using the β-RAM (IN/US, Win-flow). […]
(§3) Identification of the metabolites was performed using a Finnigan TSQ 7000 triple quadrupole mass spectrometer equipped with an API-2 electrospray interface. […] The β-RAM response was recorded as a real time analog signal by the MS data collection system. The collected data from the radioactivity and MS detectors were separated by the dwell volume of flow from the MS to the radioactivity detector (corresponding to a dwell time of about 0.2 min.). […]

[2] = Metabolism of 14C-parent in dog liver microsomes; assay type: in vitro ADME; conditions: 20 μM 14C-parent, NADPH, 30 minutes, 37° C.; HPLC radiochromatogram peak
Experimental: as §1, §2, §3

[3] = target: T1, rat EP2 prostaglandin E2 receptor (Rattus norvegicus, UniProt Q62928); test: Rat EP2 receptor binding assay (displacement of 3H-prostaglandin E2); conditions: 293S cell membranes expressing rat EP2, 3 nM 3H-prostaglandin E2, 1 hour at 25° C.
T1 construct: This full length receptor is used to prepare 293S cells expressing the EP2 receptor; expressed in transfected cells; membranes used in the assay
Description: Rat EP2 Recptor Binding Assay
Assay for Binding to Prostaglandin E2 Receptors
The full length EP2 receptor is made as disclosed in Nemoto et al., Prostaglandins and other Lipid Mediators, 1997, 54, 713-725. This full length receptor is used to prepare 293S cells expressing the EP2 receptor.
293S cells expressing the rat EP2 prostaglandin E2 receptor are generated according to methods known to those skilled in the art. Typically, PCR (polymerase chain reaction) primers corresponding to the 5′ and 3′ ends of the published full length receptor are made according to the well known methods disclosed above and are used in an RT-PCR reaction using the total RNA from rat kidney as a source. […]
Membrane Preparation: All operations are performed at 4° C. […] Pelleted membranes are resuspended to 3-10 mg protein per ml, protein concentration being determined of the method of Bradford [Bradford, M., Anal. Biochem., 72, 248 (1976)]. […]
Binding Assay: Frozen membranes prepared as above are thawed and diluted to 1 mg protein per ml in Buffer A above. […] To determine the amount of ^3H-prostaglandin bound to the membranes, the dried filters are placed into plastic bags with scintillation fluid and counted in a LKB 1205 Betaplate reader (Wallac, Gaithersburg, Md.). […]

[4] = Metabolism of 14C-parent in human liver microsomes; assay type: in vitro ADME; conditions: 20 μM 14C-parent, NADPH, 30 minutes, 37° C.; HPLC radiochromatogram peak
Experimental: as §1, §2, §3

T1 sequence (Q62928 whole entry): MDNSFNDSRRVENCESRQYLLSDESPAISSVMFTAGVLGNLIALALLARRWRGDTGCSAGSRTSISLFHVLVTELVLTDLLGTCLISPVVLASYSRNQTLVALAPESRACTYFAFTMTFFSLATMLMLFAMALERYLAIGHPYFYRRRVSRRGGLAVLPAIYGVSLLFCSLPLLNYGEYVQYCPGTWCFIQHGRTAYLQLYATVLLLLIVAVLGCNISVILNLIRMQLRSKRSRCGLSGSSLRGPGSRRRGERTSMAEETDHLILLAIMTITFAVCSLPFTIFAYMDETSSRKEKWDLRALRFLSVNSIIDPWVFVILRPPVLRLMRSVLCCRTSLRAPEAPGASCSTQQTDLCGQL

- Percent of Radioactivity, Rat liver microsomes [1]: 4.38%
- Percent of Radioactivity, Dog liver microsomes [2]: 11.5%
- IC50 [3]: 170 nM
- Percent of Radioactivity, Human liver microsomes [4]: 26.5%
Structure (SMILES): CC(C)(CO)c1ccc(CN(Cc2cccc(OCC(=O)O)c2)S(=O)(=O)c2cccnc2)cc1 [Metabolite M4, (3-{[[4-(2-hydroxy-1,1-dimethyl-ethyl)-benzyl]-(pyridine-3-sulfonyl)-amino]-methyl}-phenoxy)-acetic acid]
